# Results reported in publication PMC10866962, “Molecular docking of bioactive compounds extracted and purified from selected medicinal plant species against covid-19 proteins and in vitro evaluation” (Scientific Reports, 2024).
# Key:
# E. coli = assay: Agar well diffusion method; format: cell-based, Escherichia coli; conditions: compound solution 0.6 mg/mL, 40 μL per well, 24 h at 37 °C
# Method: (§1) Allowed it to solidify for 15 min. […] The experiment was run in triplicates.
# P. aeruginosa = assay: Agar well diffusion method; format: cell-based; conditions: compound solution 0.6 mg/mL, 40 μL per well, 24 h at 37 °C
# Method: as §1
# Salmonella = assay: Agar well diffusion method; format: cell-based; conditions: compound solution 0.6 mg/mL, 40 μL per well, 24 h at 37 °C
# Method: as §1
# Klebsiella pneumoniae = assay: Agar well diffusion method; conditions: for zone of inhibition at 600 µg/mL: 24 h; for zone of inhibition: compound solution 0.6 mg/mL, 40 μL per well, 24 h at 37 °C
# Method: (§2) Antibacterial activity of compounds was determined by agar well diffusion method[42]. Antibacterial activity of different compounds was tested against seven clinical pathogens (Klebsiella pneumonia, Escherichia coli, Xanthomonas, S. aureus, Salmonella, P. aeruginosa and S. epidermitis). The nutrient agar medium was prepared by dissolving 6 g agar nutrient powder in 250 mL distilled water. The media was autoclaved and poured into pre-labeled petri plates under sterile condition. Then rinsed these plates with bacterial suspension before solidification. Allowed it to solidify for 15 min. Compound solution of 0.6 mg/mL was used. Cefixime with 1 mg/1 mL was used as positive control whereas DMSO was used as negative control. After solidification made wells of 6 mm using sterile cork borer. Each well was sealed with 20 μL of agar. After sealing 40 μL of each compound solution was added in well. The petri plates were sealed by para-film and kept in incubator for 24 h at 37 °C. The experiment was run in triplicates. The zone of inhibition of bacterial growth was measured with scale in mm.
# [1] = DPPH free radical scavenging assay; conditions: for IC50 in DPPH assay: calculated by linear regression equation; for antioxidant potential (free radical scavenging) in DPPH assay: at 200 µg/mL
# Method: The DPPH assay was performed according to the protocol of Ghasemi et al.[40] with little modifications. For DPPH solution, 3 mg of DPPH powder was dissolved in 100 mL methanol. […] Different serial dilutions (25, 50, 100, and 200 μg/mL) were prepared. The 3 mL DPPH methanolic solution was added to 400 μL compounds methanolic solution. The mixture was continuously shaken and stored at room temperature under shade for exactly 30 min. The absorbance of reaction mixture was measured at 515 nm spectrophotometrically. […] The experiment was repeated three times and percentage inhibition was calculated as follows.
# [2] = ABTS free radical scavenging assay; design: IC50 values in ABTS assay (Table 2): unit not given beside the values; conditions: for free radical scavenging potential in ABTS assay: at 200 µg/mL; for IC50 value in ABTS assay / IC50 values in ABTS assay (Table 2): calculated by linear regression equation; for IC50 values in ABTS assay (Table 2): unit not given
# brine shrimp nauplii = assay: Brine shrimp lethality assay (BSLA); conditions: 24 h; for mortality at 200 µg/mL: read-out: mortality rate / cytotoxic effect in brine shrimp lethality assay; for mortality rate / cytotoxic effect in brine shrimp lethality assay: at highest 200 µg/mL concentration
# Xanthomonas = assay: Agar well diffusion method; format: cell-based; conditions: for zone of inhibition: compound solution 0.6 mg/mL, 40 μL per well, 24 h at 37 °C
# Method: as §2
# S. aureus = assay: Agar well diffusion method; format: cell-based; conditions: for zone of inhibition: S. aureus, compound solution 0.6 mg/mL, 40 μL per well, 24 h at 37 °C
# Method: as §1
Compound,IC50 in DPPH assay [1] [µg/mL],free radical scavenging potential in ABTS assay [2] [%],IC50 value in ABTS assay [2] [µg/mL],IC50 values in ABTS assay (Table 2) [2],mortality at 200 µg/mL (brine shrimp nauplii) [%],other results
O=c1c2cc(O)c(O)cc2oc2cc(O)c([C@@H]3O[C@H](CO)[C@@H](O)[C@H](O)[C@H]3O)c(O)c12 [Mangiferrin],110.4,73,110.33,110.3,50,zone of inhibition at 600 µg/mL (E. coli; Escherichia coli): 15 mm; zone of inhibition at 600 µg/mL (P. aeruginosa; Pseudomonas aeruginosa): 10 mm; zone of inhibition at 600 µg/mL (Salmonella): 28 mm; zone of inhibition at 600 µg/mL (Klebsiella pneumoniae): 32 mm
COc1ccc2c3c([nH]c2c1)C(C)=NCC3 [Harmaline],94.84,80.71,15.79,15.79,80,zone of inhibition at 600 µg/mL (Xanthomonas; 24 h): 23 mm
O=C(/C=C/c1ccc(O)cc1)OC[C@H]1O[C@@H](Oc2c(-c3ccc(O)cc3)oc3cc(O)cc(O)c3c2=O)[C@H](O)[C@@H](O)[C@@H]1O [Tiliroside],78.77,70,101.64,67.53,95,zone of inhibition at 600 µg/mL (Klebsiella pneumoniae): 24 mm; antioxidant potential (free radical scavenging) in DPPH assay [1]: 77.77%; IC50 in DPPH assay ([1]; listed as tiliroside): 78.77 µg/mL; LD50 value in brine shrimp lethality assay (brine shrimp nauplii): 73.59 µg/mL
"CN1CCC[C@H]1c1cccnc1 [Nicotine, reference compound]",,,,,100,LD50 value in brine shrimp lethality assay (brine shrimp nauplii): 30.69 µg/mL
O=c1c(O[C@@H]2O[C@H](CO)[C@@H](O)[C@H](O)[C@H]2O)c(-c2ccc(O)cc2)oc2cc(O)cc(O)c12 [Astragalin],100.9,78,,49.41,55,zone of inhibition at 600 µg/mL (Klebsiella pneumoniae): 26 mm
O[C@H]1CCN2Cc3ccccc3N=C12 [Vasicine],137.7,69,114.82,114.8,55,"zone of inhibition at 600 µg/mL (S. aureus; Staphylococcus aureus, 24 h): 22 mm"
COc1ccc2c(c1)[nH]c1c(C)nccc12 [Harmine],,,,,65,
Quercitin-3-O rhamnoside [Quercitin-3-O-rhamnoside],185.27,,,,,zone of inhibition (Klebsiella pneumoniae): 22 mm; IC50 in DPPH assay ([1]; listed as Quercetin-3-O- rahmnoside): 185.3 µg/mL
O=C(c1ccc(O)cc1)c1c(O)cc(O)c([C@@H]2O[C@H](CO)[C@@H](O)[C@H](O)[C@H]2O)c1O [Irriflophenone-3-C-β-D-glucopyranoside],125,71,112.63,112.6,,zone of inhibition (Xanthomonas): 19 mm; zone of inhibition (E. coli): 34 mm; zone of inhibition (P. aeruginosa): 8 mm; zone of inhibition (S. aureus): 28 mm; zone of inhibition (Salmonella): 31 mm; zone of inhibition (Klebsiella pneumoniae): 30 mm; mortality rate / cytotoxic effect in brine shrimp lethality assay (brine shrimp nauplii): 65%
"O=C1O[C@H]([C@@H](O)CO)C(O)=C1O [Ascorbic acid, reference compound]",97.065,90,14.77,14.77,,
O=c1c2cc(O)c(O)cc2oc2c([C@@H]3O[C@H](CO)[C@@H](O)[C@H](O)[C@H]3O)c(O)cc(O)c12 [Isomangiferrin],93.86,62,124.19,124.2,,zone of inhibition (P. aeruginosa): 5 mm; zone of inhibition (S. aureus): 32 mm; zone of inhibition (Klebsiella pneumoniae): 28 mm; antioxidant potential (free radical scavenging) in DPPH assay [1]: 78.32%; IC50 in DPPH assay ([1]; listed as isomangiferrin): 93.85 µg/mL; mortality rate / cytotoxic effect in brine shrimp lethality assay (brine shrimp nauplii): 55%
"O=c1c2ccccc2nc2n1CC[C@@H]2O [PH-HM 17, vasicinone]",124.9,,,101.6,,zone of inhibition (Xanthomonas): 22 mm
